Measured values from patent US4378358A, “Benzothiazinopyrazoles having pharmacological activity” (Mediolanum Farmaceutici s.r.l., priority 1980, dated 1983).
Like-named read-outs stand apart in the source and are kept apart here.

Key:
carrageenin paw edema = test: Antiinflammatory activity according to Winter et al., carrageenin paw edema, modified; assay type: in vivo, rat; conditions: for inhibition in vivo at 50 mg/kg / inhibition in vivo at 100 mg/kg: Rattus norvegicus, po, 4 h, female rats, read-out: % inhibition of the edema after 4 hours
Experimental: Antiinflammatory activity according to WINTER et al., Proc. Soc. Exp. Biol. Med.; 111, 544; 1962.
The test was modified in that the injection of carrageenin and the administration of the compound by gastric gavage were carried out simultaneously and the paw edema was measured at the plethysmograph after 4 hours.
Animals: 6 female rats for each group, average body weight: 150g

rats [1] = assay type: in vivo, rat; conditions: single oral administration, male rats; for Average number of lesions per animal: 100 mg/kg (maximum tested dose)
Experimental: The test was modified by increasing the fast period to 70 hours and giving the total dose of substance in one single oral administration.
Animals: 10 male rats for each group, average body weight: 150g.

in vivo [2] = conditions: rat, in vivo, po; for mortality at 120 h: read-out: % of dead animals; for mortality: read-out: % of dead animals per day
Source text: (§1) Five days subacute toxicity in rats per os
(§2) Animals: 5 female rats for each group, average body weight: 150g.

rats [3] = test: in vivo; conditions: 5 days, rats, per os
Source text: as §1, §2

phenylquinone writhes = test: Analgesic activity according to Hendershot et al., phenylquinone writhes, modified; assay type: in vivo, mouse; conditions: for inhibition in vivo at 50 mg/kg / inhibition in vivo at 100 mg/kg: Mus musculus, 2 h before phenylquinone, 5-15 min, female mice
Experimental: Analgesic activity according to HENDERSHOT et al., Jour. Pharm.
The test was modified by numbering the writhes only along the time interval from 5 to 15 minutes since the injection of phenylquinone. The injection was made 2 hours after the oral administration of the compound to be tested.
Animals: 8 female mice for each group, average body weight: 25g

in vivo [4] = assay type: in vivo; conditions: rat, in vivo, po; read-out: LD 50 (Litchfield and Wilcoxon)
Rat = test: in vivo; assay type: in vivo
pyresis = test: Antipyretic activity according to Burn et al.; assay type: in vivo, rat; conditions: for Reduction of the pyresis at hour 4: female rats
Source text: Animals: 6 female rats for each group, average body weight 200 g.

in vivo [5] = conditions: mouse, po
[6] = 50 mg/g (so in the source) per os
[7] = 100 mg/g (so in the source) per os

## CN1c2c(C(=O)NCCCNC3CCCCC3)nn(-c3ccccc3)c2-c2ccccc2S1(=O)=O [Compound I-4]
Carrageenin paw edema; 50 mg/kg per os
  Antiinflammatory relative potency to naproxen: 1.7
  Antiinflammatory relative potency to piroxicam: 0.8
  inhibition in vivo at 50 mg/kg: 36%
Carrageenin paw edema; 100 mg/kg per os
  Antiinflammatory relative potency to naproxen: 2.4
  Antiinflammatory relative potency to piroxicam: 1.1
  inhibition in vivo at 100 mg/kg: 50%
Rats [1]
  Average number of lesions per animal: 0
  Gastrolesive effect, relative potency to naproxen: > 20
  Gastrolesive effect, relative potency to piroxicam: 100
In vivo [2]; 100 mg/kg/day
  mortality at 120 h: 0%
  mortality: 0%
In vivo [2]; 200 mg/kg/day
  mortality at 120 h: 20%
  mortality: 4%
Rats [3]
  Subacute toxicity, relative ratio to naproxen: 2
  Subacute toxicity, relative ratio to piroxicam: 5
Phenylquinone writhes; 50 mg/kg oral
  Analgesic relative potency to naproxen: 1.3
  Analgesic relative potency to piroxicam: 0.9
  inhibition in vivo at 50 mg/kg: 42%
Phenylquinone writhes; 100 mg/kg oral
  Analgesic relative potency to naproxen: 1.8
  Analgesic relative potency to piroxicam: 1.3
  inhibition in vivo at 100 mg/kg: 59%
In vivo [4]
  LD50: 1090 mg/kg
Rat; in vivo
  LD 50, relative ratio to piroxicam: 4.0
Mouse; in vivo
  LD 50, relative ratio to piroxicam: 2.0
pyresis; [6]
  Antipyretic relative potency to naproxen: 1.2
  Antipyretic relative potency to piroxicam: 1.6
  Reduction of the pyresis at hour 4: 1.40 °C
pyresis; [7]
  Antipyretic relative potency to naproxen: 1.3
  Antipyretic relative potency to piroxicam: 1.7
  Reduction of the pyresis at hour 4: 1.47 °C
In vivo [5]
  LD50: 720 mg/kg

## CCN(CC)CCNC(=O)c1nn(-c2cccc(F)c2)c2c1N(C)S(=O)(=O)c1ccccc1-2 [Compound I-20]
Carrageenin paw edema; 50 mg/kg per os
  Antiinflammatory relative potency to naproxen: 0.7
  Antiinflammatory relative potency to piroxicam: 0.3
  inhibition in vivo at 50 mg/kg: 15%
Carrageenin paw edema; 100 mg/kg per os
  Antiinflammatory relative potency to naproxen: 1.0
  Antiinflammatory relative potency to piroxicam: 0.5
  inhibition in vivo at 100 mg/kg: 21%
Rats [1]
  Average number of lesions per animal: 0
  Gastrolesive effect, relative potency to naproxen: > 20
  Gastrolesive effect, relative potency to piroxicam: 100
In vivo [2]; 350 mg/kg/day
  mortality at 120 h: 0%
Rats [3]
  Subacute toxicity, relative ratio to naproxen: 7
  Subacute toxicity, relative ratio to piroxicam: 17
Phenylquinone writhes; 50 mg/kg oral
  Analgesic relative potency to naproxen: 1.3
  Analgesic relative potency to piroxicam: 1.0
  inhibition in vivo at 50 mg/kg: 44%
Phenylquinone writhes; 100 mg/kg oral
  Analgesic relative potency to naproxen: 2.2
  Analgesic relative potency to piroxicam: 1.6
  inhibition in vivo at 100 mg/kg: 72%
In vivo [4]
  LD50: 2220 mg/kg
Rat; per os
  LD 50, relative ratio to naproxen: 4.1
  LD 50, relative ratio to piroxicam: 8.2
Mouse; per os
  LD 50, relative ratio to naproxen: 1.3
  LD 50, relative ratio to piroxicam: 4.4
pyresis; [6]
  Antipyretic relative potency to naproxen: 0.4
  Antipyretic relative potency to piroxicam: 0.5
  Reduction of the pyresis at hour 4: 0.45 °C
pyresis; [7]
  Antipyretic relative potency to naproxen: 0.7
  Antipyretic relative potency to piroxicam: 0.8
  Reduction of the pyresis at hour 4: 0.75 °C
In vivo [5]
  LD50: 1600 mg/kg

## CN(C)CCCNC(=O)c1nn(-c2cccc(F)c2)c2c1N(C)S(=O)(=O)c1ccccc1-2 [Compound I-21]
Carrageenin paw edema; 50 mg/kg per os
  Antiinflammatory relative potency to naproxen: 0.6
  Antiinflammatory relative potency to piroxicam: 0.3
  inhibition in vivo at 50 mg/kg: 12%
Carrageenin paw edema; 100 mg/kg per os
  Antiinflammatory relative potency to naproxen: 0.9
  Antiinflammatory relative potency to piroxicam: 0.4
  inhibition in vivo at 100 mg/kg: 19%
Rats [1]
  Average number of lesions per animal: 0
  Gastrolesive effect, relative potency to naproxen: > 20
  Gastrolesive effect, relative potency to piroxicam: 100
In vivo [2]; 350 mg/kg/day
  mortality at 120 h: 0%
Rats [3]
  Subacute toxicity, relative ratio to naproxen: 7
  Subacute toxicity, relative ratio to piroxicam: 17
Phenylquinone writhes; 50 mg/kg oral
  Analgesic relative potency to naproxen: 1.4
  Analgesic relative potency to piroxicam: 1.0
  inhibition in vivo at 50 mg/kg: 47%
Phenylquinone writhes; 100 mg/kg oral
  Analgesic relative potency to naproxen: 2.0
  Analgesic relative potency to piroxicam: 1.4
  inhibition in vivo at 100 mg/kg: 65%
In vivo [4]
  LD50: 2260 mg/kg
Rat; per os
  LD 50, relative ratio to naproxen: 4.2
  LD 50, relative ratio to piroxicam: 8.4
Mouse; per os
  LD 50, relative ratio to naproxen: 1.2
  LD 50, relative ratio to piroxicam: 4.2
pyresis; [6]
  Antipyretic relative potency to naproxen: 0.4
  Antipyretic relative potency to piroxicam: 0.5
  Reduction of the pyresis at hour 4: 0.47 °C
pyresis; [7]
  Antipyretic relative potency to naproxen: 0.7
  Antipyretic relative potency to piroxicam: 0.8
  Reduction of the pyresis at hour 4: 0.75 °C
In vivo [5]
  LD50: 1520 mg/kg

## CN1c2c(C(=O)NCCCNC3CCCCC3)nn(-c3cccc(F)c3)c2-c2ccccc2S1(=O)=O [Compound I-23]
Carrageenin paw edema; 50 mg/kg per os
  Antiinflammatory relative potency to naproxen: 1.3
  Antiinflammatory relative potency to piroxicam: 0.6
  inhibition in vivo at 50 mg/kg: 27%
Carrageenin paw edema; 100 mg/kg per os
  Antiinflammatory relative potency to naproxen: 1.8
  Antiinflammatory relative potency to piroxicam: 0.8
  inhibition in vivo at 100 mg/kg: 38%
Rats [1]
  Average number of lesions per animal: 0
  Gastrolesive effect, relative potency to naproxen: > 20
  Gastrolesive effect, relative potency to piroxicam: 100
In vivo [2]; 200 mg/kg/day
  mortality at 120 h: 0%
Rats [3]
  Subacute toxicity, relative ratio to naproxen: 4
  Subacute toxicity, relative ratio to piroxicam: 10
Phenylquinone writhes; 50 mg/kg oral
  Analgesic relative potency to naproxen: 1.6
  Analgesic relative potency to piroxicam: 1.2
  inhibition in vivo at 50 mg/kg: 54%
Phenylquinone writhes; 100 mg/kg oral
  Analgesic relative potency to naproxen: 2.4
  Analgesic relative potency to piroxicam: 1.7
  inhibition in vivo at 100 mg/kg: 79%
In vivo [4]
  LD50: 1200 mg/kg
Rat; per os
  LD 50, relative ratio to naproxen: 2.2
  LD 50, relative ratio to piroxicam: 4.4
Mouse; in vivo
  LD 50, relative ratio to piroxicam: 2.0
pyresis; [6]
  Antipyretic relative potency to naproxen: 1.1
  Antipyretic relative potency to piroxicam: 1.3
  Reduction of the pyresis at hour 4: 1.20 °C
pyresis; [7]
  Antipyretic relative potency to naproxen: 1.3
  Antipyretic relative potency to piroxicam: 1.6
  Reduction of the pyresis at hour 4: 1.42 °C
In vivo [5]
  LD50: 720 mg/kg
